Laboratory results: patent US20210393645A1, “TREATMENT FOR PROGRESSIVE MULTIPLE SCLEROSIS” (UTI LIMITED PARTNERSHIP, priority 2016, published 2021)
Structures can show the parent of a compound that is named as a salt. Where two headings read alike, the source gives them in different places. Positions of bridges follow the written chain, without caps; N, C: chain ends. Non-standard residues stand in square brackets, D forms with d. Residues, ends and D or L forms follow the SMILES beside them. *: point of attachment. Ileψ(thiazoline)Cys = CC[C@H](C)[C@H](N)C1=N[C@H](C(=O)*)CS1; dOrn = NCCC[C@@H](N)C(=O)O

System: human neurons
Assay: Iron (FeSO4) mediated neurotoxicity screening, MAP-2 positive neurons counted
Assay type: cell-based
Conditions: for viability at 10 µM: Homo sapiens, Neuron, read-out: Drug % control (mean): number of neurons normalized to untreated control
Method: Human neurons were isolated from brain tissues of therapeutically aborted 15-20 week old fetuses, in accordance with ethics approval of the University of Calgary ethics committee, after written informed consent of the pregnant donors. Neurons were isolated as previously described (Vecil et al., 2000) brain specimens were washed in phosphate buffered saline (PBS) to remove blood, followed by removal of meninges. […] Thereafter, the digestion was stopped by addition of 4 ml fetal calf serum (FCS). […] Cells were cultured in feeding medium of minimal essential medium (MEM) supplemented with 10% fetal bovine serum (FBS), 1 μM sodium pyruvate, 10 μM glutamine, 1× non-essential amino acids, 0.1% dextrose and 1% penicillin/streptomycin (all culture supplements from Invitrogen, Burlington, Canada). […] For experiments, the neuron-enriched cultures were retrypsinized and cells were plated in poly-L-ornithine pre-coated 96-well plates at a density of 100,000 cells/well in 100 μl of the complete medium supplemented with cytosine arabinoside. […] All conditions were performed in quadruplicates. A day later cells were fixed using 4% paraformaldehyde (PFA) and stored in PBS in 4° C.
Briefly, there were 80 compounds located in specific wells on each plate (e. g. B07). […] Each compound was supplied at a concentration of 10 mM dissolved in DMSO.
After filtering with a 0.2 μm filter, FeSO4 was added to cells in a final concentration of 25-50 μM in a volume of 50 μl medium to the cells. Rotenone was dissolved in dimethyl sulfoxide (DMSO) and used in a final concentration of 10 μM.
Staining was performed at room temperature. A blocking buffer was first introduced for 1 h followed by incubation with primary antibody overnight in 4° C.
Cell nuclei were stained with Hoechst S769121 (nuclear yellow). Cells were stored in 4° C. in the dark before imaging.
Images were taken using the automated ImageXpress® imaging system (Molecular Devices, Sunnyvale, Calif.) through a 10x objective microscope lens, displaying 4 or 9 sites per well. […] Cells were defined according to fluorescence intensity and size at different wavelengths. Data from all sites per well were averaged to one data point.
Neurons were pre-incubated with each compound for 1 h followed by application of FeSO4.

[1] = drug 10 μM 1 h before FeSO4 25 or 50 μM, MAP-2 neurons after 24 h

Structure (SMILES)	viability at 10 µM [1] [%]	other results
S=c1nc[nH]c2nc[nH]c12 [MERCAPTOPURINE]	1.73	
CCOC(=O)[C@H](CCc1ccccc1)N[C@@H](C)C(=O)N1CCC[C@H]1C(=O)O [ENALAPRIL MALEATE]	41	
COc1ccccc1OCC(O)CO (centres unmarked) [GUAIFENESIN]	3.28	
CCCc1cc(=O)[nH]c(=S)[nH]1 [PROPYLTHIOURACIL]	35.9	
CN1C(C(=O)Nc2ccccn2)=C(O)c2ccccc2S1(=O)=O [PIROXICAM]	36.2	
Nc1cc(N2CCCCC2)nc(N)[n+]1[O-] [MINOXIDIL]	33.7	
CCOC(=O)[C@H](CCc1ccccc1)N[C@@H](C)C(=O)N1Cc2ccccc2C[C@H]1C(=O)O [QUINAPRIL HYDROCHLORIDE]	41.5	
COc1ccccc1OCC(O)COC(N)=O (centres unmarked) [METHOCARBAMOL]	0.84	
O=C1C(CC[S+]([O-])c2ccccc2)C(=O)N(c2ccccc2)N1c1ccccc1 (centres unmarked) [SULFINPYRAZONE]	46.5	
COc1ccc2c(c1)[C@]13CCCC[C@@H]1[C@H](C2)N(C)CC3 [DEXTROMETHORPHAN HYDROBROMIDE]	3.49	
O=C1[C@H](CC[C@H](O)c2ccc(F)cc2)[C@@H](c2ccc(O)cc2)N1c1ccc(F)cc1 [EZETIMIBE]	50.5	
Cc1ccc(C)c(OCCCC(C)(C)C(=O)O)c1 [GEMFIBROZIL]	5.05	
CC(C)(C)NC[C@H](O)COc1nsnc1N1CCOCC1 [TIMOLOL MALEATE]	11.1	
C#C[C@]1(O)CC[C@H]2[C@@H]3CCC4=Cc5oncc5C[C@]4(C)[C@H]3CC[C@@]21C [DANAZOL]	4.37	
CC1(C)O[C@@H]2[C@@H](CO[C@@]3(COS(N)(=O)=O)OC(C)(C)O[C@@H]23)O1 [TOPIRAMATE]	46.1	
Cc1ccccc1N1C(=O)c2cc(S(N)(=O)=O)c(Cl)cc2NC1C (centres unmarked) [METOLAZONE]	69	
CCCc1nc(C(C)(C)O)c(C(=O)OCc2oc(=O)oc2C)n1Cc1ccc(-c2ccccc2-c2nnn[nH]2)cc1 [OLIVEESARTAN MEDOXOMIL]		Drug % control (mean): number of neurons normalized to untreated control [1]: 55.85%
Cc1cc(NS(=O)(=O)c2ccc(N)cc2)no1 [SULFAMETHOXAZOLE]	16.2	
CCCCCCCCCCC[C@@H](C[C@@H]1OC(=O)[C@H]1CCCCCC)OC(=O)[C@H](CC(C)C)NC=O [ORLISTAT]	1	
CCc1cccc2c3c([nH]c12)C(CC)(CC(=O)O)OCC3 (centres unmarked) [ETODOLAC]	34.4	
O=C(O)Cc1ccccc1Nc1c(Cl)cccc1Cl [DICLOFENAC SODIUM]	5.92	

Structure (SMILES)	viability at 10 µM [1] [%]	other results
O=C(O)c1cc(-c2ccc(F)cc2F)ccc1O [DIFLUNISAL]	4.12	
NC[C@@H]1O[C@H](O[C@H]2[C@@H](O)[C@H](O[C@@H]3[C@@H](O)[C@H](N)C[C@H](N)[C@H]3O[C@H]3O[C@H](CO)[C@@H](O)[C@H](O)[C@H]3N)O[C@@H]2CO)[C@H](N)[C@@H](O)[C@@H]1O [PAROMOMYCIN SULFATE]	35.3	
CCC1(c2ccccc2)C(=O)NCNC1=O [PRIMIDONE]	45.2	
Nc1ccc(/N=N/c2ccccc2)c(N)n1 [PHENAZOPYRIDINE HYDROCHLORIDE]	101	
CC(NC(C)(C)C)C(=O)c1cccc(Cl)c1 (centres unmarked) [BUPROPION]	55.5	
CCCC1O[C@@H]2C[C@H]3[C@@H]4CCC5=CC(=O)C=C[C@]5(C)[C@H]4[C@@H](O)C[C@]3(C)[C@]2(C(=O)CO)O1 (some centres unmarked) [BUDESONIDE]	70	
CN(Cc1cnc2nc(N)nc(N)c2n1)c1ccc(C(=O)N[C@@H](CCC(=O)O)C(=O)O)cc1 [METHOTREXATE]	43.3	
CC[C@H](C)[C@H](N)C1=N[C@H](C(=O)N[C@@H](CC(C)C)C(=O)N[C@H](CCC(=O)O)C(=O)N[C@H](C(=O)N[C@H]2CCCCNC(=O)[C@H](CC(N)=O)NC(=O)[C@@H](CC(=O)O)NC(=O)[C@H](Cc3cnc[nH]3)NC(=O)[C@@H](Cc3ccccc3)NC(=O)[C@H]([C@@H](C)CC)NC(=O)[C@@H](CCCN)NC2=O)[C@@H](C)CC)CS1 [BACITRACIN] ({Ileψ(thiazoline)Cys}-L[dE]IK[dOrn]I[dF]H[dD]N; lactam 4-C)	5.04	
COc1cc(NC(C)CCCN)c2ncccc2c1 (centres unmarked) [PRIMAQUINE DIPHOSPHATE]		viability at 10 µM (24 h): 89.1%
CN[C@H](CC(C)C)C(=O)N[C@H]1C(=O)N[C@@H](CC(N)=O)C(=O)N[C@H]2C(=O)N[C@H]3C(=O)N[C@H](C(=O)N[C@H](C(=O)O)c4cc(O)cc(O)c4-c4cc3ccc4O)[C@H](O)c3ccc(c(Cl)c3)Oc3cc2cc(c3O[C@@H]2O[C@H](CO)[C@@H](O)[C@H](O)[C@H]2O[C@H]2C[C@](C)(N)[C@H](O)[C@H](C)O2)Oc2ccc(cc2Cl)[C@H]1O [VANCOMYCIN HYDROCHLORIDE]		viability at 10 µM (24 h): 11.7%
CC(=O)OCC(CCn1cnc2cnc(N)nc21)COC(C)=O [FAMCICLOVIR]	91	
CNC(=C[N+](=O)[O-])NCCSCc1ccc(CN(C)C)o1 [RANITIDINE]	40.2	
NC(=O)c1cnccn1 [PYRAZINAMIDE]	67.2	
N=C(N)NC(=O)c1nc(Cl)c(N)nc1N [AMILORIDE HYDROCHLORIDE]	37.1	
Cc1ccc(S(=O)(=O)NC(=O)NN2CC3CCCC3C2)cc1 (centres unmarked) [GLICLAZIDE]	47.3	
NS(=O)(=O)c1cc(C2(O)NC(=O)c3ccccc32)ccc1Cl (centres unmarked) [CHLORTHALIDONE]	7.66	
CCCCNc1cc(C(=O)O)cc(S(N)(=O)=O)c1Oc1ccccc1 [BUMETANIDE]	29.4	
C=CCN1CC[C@]23c4c5ccc(O)c4O[C@H]2C(=O)CC[C@@]3(O)[C@H]1C5 [NALOXONE HYDROCHLORIDE]	69.5	
CC(C)(Oc1ccc(CCNC(=O)c2ccc(Cl)cc2)cc1)C(=O)O [BEZAFIBRATE]	35.5	
NCC(CC(=O)O)c1ccc(Cl)cc1 (centres unmarked) [BACLOFEN]	35.8	
Cc1cn([C@H]2C[C@H](N=[N+]=[N-])[C@@H](CO)O2)c(=O)[nH]c1=O [ZIDOVUDINE [AZT]]		Drug % control (mean): number of neurons normalized to untreated control [1]: 66.49%

Structure (SMILES)	viability at 10 µM [1] [%]	other results
CCC(=O)O[C@H]1[C@H](O[C@@H]2[C@@H](C)[C@H](O[C@H]3C[C@@](C)(OC)[C@@H](O)[C@H](C)O3)[C@@H](C)C(=O)O[C@H](CC)[C@@](C)(O)[C@H](O)[C@@H](C)C(=O)[C@H](C)C[C@@]2(C)O)O[C@H](C)C[C@@H]1N(C)C [ERYTHROMYCIN ESTOLATE]	56.7	
COc1c2occc2cc2ccc(=O)oc12 [METHOXSALEN]	59	
Cn1cnc([N+](=O)[O-])c1Sc1ncnc2nc[nH]c12 [AZATHIOPRINE]	4.65	
CC1=C(C(=O)O)N2C(=O)[C@@H](NC(=O)[C@H](N)c3ccccc3)[C@H]2SC1 [CEPHALEXIN]		viability at 10 µM (24 h): 38.9%
CC1(C)NC(=O)N(c2ccc([N+](=O)[O-])c(C(F)(F)F)c2)C1=O [NILUTAMIDE]	48.7	
NC12CC3CC(CC(C3)C1)C2 [AMANTADINE HYDROCHLORIDE]	52.6	
CCOC(=O)[C@H](CCc1ccccc1)N[C@H]1CCc2ccccc2N(CC(=O)O)C1=O [BENAZEPRIL HYDROCHLORIDE]	72.2	
Oc1ncnc2[nH]ncc12 [ALLOPURINOL]	25.5	
COC(=O)[C@@H]1[C@H]2C[C@H]3c4[nH]c5ccccc5c4CCN3C[C@@H]2CC[C@@H]1O [YOHIMBINE HYDROCHLORIDE]	100	
NS(=O)(=O)c1cc2c(cc1Cl)NCNS2(=O)=O [HYDROCHLOROTHIAZIDE]	2.55	
CCC1(C)CC(=O)NC1=O (centres unmarked) [ETHOSUXIMIDE]	74.3	
NS(=O)(=O)c1cc(C(=O)O)c(NCc2ccco2)cc1Cl [FUROSEMIDE]	3.96	
CCCCCCc1ccc(O)cc1O [HEXYLRESORCINOL]	71.5	
CNCCC(Oc1ccc(C(F)(F)F)cc1)c1ccccc1 (centres unmarked) [FLUOXETINE]	81.4	
C=C[C@H]1C[N@@]2CC[C@H]1C[C@H]2[C@H](O)c1ccnc2ccc(OC)cc12 [QUININE SULFATE]	21.3	
OCCN1CCN(CCCN2c3ccccc3Sc3ccc(C(F)(F)F)cc32)CC1 [FLUPHENAZINE HYDROCHLORIDE]	12.1	
CN(C)CCC=C1c2ccccc2CCc2ccccc21 [AMITRIPTYLINE HYDROCHLORIDE]	34.8	
CC[C@H](C)C(=O)O[C@H]1C[C@@H](C)C=C2C=C[C@H](C)[C@H](CC[C@@H]3C[C@@H](O)CC(=O)O3)[C@H]21 [LOVASTATIN]		viability at 10 µM (24 h): 32.2%
CCCN(CCC)S(=O)(=O)c1ccc(C(=O)O)cc1 [PROBENECID]	71.5	
N[C@@H]1C[C@H]1c1ccccc1.N[C@H]1C[C@@H]1c1ccccc1.O=S(=O)(O)O [TRANYLCYPROMINE SULFATE]		Drug % control (mean): number of neurons normalized to untreated control: 21.59%
